Tests used:
[1] = test system: M41CSR OVCA cell line; test: CellTiter-Blue cell viability assay, M41CSR; type: cell-based; details: Homo sapiens; M41CSR cells, 72 hours, growth/viability
Source text: (§1) OVCA cell lines were obtained from the American Type Culture Collection (Manassas, Va.; CAOV3, OV90, OVCAR3, SKOV3), from the European Collection of Cell Cultures (Salisbury, UK; A2780CP, A2780S), from Kyoto University (Kyoto, Japan; CHI, CHIcisR, M41, M41CSR, Tyknu, and TyknuCisR), or as kind gifts (A2008, C13, CAOV2, HeyA8, IGR-OV1, IMCC3, IMCC5, MCAS, OV2008, OVCA420, OVCA429, OVCA432, OVCA433, FUOV1, PEO1, PEO4, SK-OV-6, T8, TOV-112D, TOV-21-G, Dov13, BG1, Ovary1847, OVCAR10, OVCAR8, OVCAR5, OVCAR4, OVCAR2, SK-OV-4). Cell lines were maintained in RPMI 1640 medium (Invitrogen, Carlsbad, Calif.) supplemented with 10% fetal bovine serum (Fisher Scientific, Pittsburgh, Pa.), 1% sodium pyruvate, 1% penicillin/streptomycin (Cellgro, Manassas, Va.), and 1% nonessential amino acids (HyClone, Hudson, N.H.). Mycoplasma testing was performed every 6 months, in accordance with the manufacturer's protocol (Lonza, Rockland, Me.).
(§2) Drug activity was evaluated using a high-throughput CellTiter-Blue® cell viability assay. […] Fluorescence was read at 579-nm excitation/584-nm emission using a Synergy™ 4 microplate reader (Bio-Tek Instruments, Inc., Winooski, Vt.). IC50 values were determined using a sigmoidal equilibrium model fit (XLfit 5.2, ID Business Solutions Ltd.). […]

[2] = test system: OVCA433 OVCA cell line; test: CellTiter-Blue cell viability assay, OVCA433; type: cell-based; details: Homo sapiens; OVCA433 cells, 72 hours, growth/viability
Source text: as §1, §2

[3] = test system: A2780CP OVCA cell line; test: CellTiter-Blue cell viability assay, A2780CP; type: cell-based; details: Homo sapiens, A2780C/P; A2780CP cells, 72 hours, growth/viability
Source text: as §1, §2

[4] = test system: MCAS OVCA cell line; test: CellTiter-Blue cell viability assay, MCAS; type: cell-based; details: Homo sapiens; MCAS cells, 72 hours, growth/viability
Source text: as §1, §2

[5] = test system: OVCAR3 OVCA cell line; test: CellTiter-Blue cell viability assay, OVCAR3; type: cell-based; details: Homo sapiens, OVCAR-3; OVCAR3 cells, 72 hours, growth/viability
Source text: as §1, §2

[6] = test system: IMCC3 OVCA cell line; test: CellTiter-Blue cell viability assay, IMCC3; type: cell-based; details: Homo sapiens; IMCC3 cells, 72 hours, growth/viability
Source text: as §1, §2

[7] = test system: TyknuCisR OVCA cell line; test: CellTiter-Blue cell viability assay, TyknuCisR; type: cell-based; details: Homo sapiens; TyknuCisR cells, 72 hours, growth/viability
Source text: as §1, §2

[8] = test system: CAOV3 OVCA cell line; test: CellTiter-Blue cell viability assay, CAOV3; type: cell-based; details: Homo sapiens, Caov-3; CAOV3 cells, 72 hours, growth/viability
Source text: as §1, §2

[9] = test system: FUOV1 OVCA cell line; test: CellTiter-Blue cell viability assay, FUOV1; type: cell-based; details: Homo sapiens; FUOV1 cells, 72 hours, growth/viability
Source text: as §1, §2

[10] = test system: A2780S OVCA cell line; test: CellTiter-Blue cell viability assay, A2780S; type: cell-based; details: Homo sapiens; A2780S cells, 72 hours, growth/viability
Source text: as §1, §2

[11] = test system: BG1 OVCA cell line; test: CellTiter-Blue cell viability assay, BG1; type: cell-based; details: Homo sapiens, BG-1; BG1 cells, 72 hours, growth/viability
Source text: as §1, §2

[12] = test system: SK-OV-6 OVCA cell line; test: CellTiter-Blue cell viability assay, SK-OV-6; type: cell-based; details: Homo sapiens; SK-OV-6 cells, 72 hours, growth/viability
Source text: as §1, §2

[13] = test system: A2008 OVCA cell line; test: CellTiter-Blue cell viability assay, A2008; type: cell-based; details: Homo sapiens; A2008 cells, 72 hours, growth/viability
Source text: as §1, §2

[14] = test system: OVCAR2 OVCA cell line; test: CellTiter-Blue cell viability assay, OVCAR2; type: cell-based; details: Homo sapiens; OVCAR2 cells, 72 hours, growth/viability
Source text: as §1, §2

[15] = test system: TOV-112D OVCA cell line; test: CellTiter-Blue cell viability assay, TOV-112D; type: cell-based; details: Homo sapiens, TOV112D; TOV-112D cells, 72 hours, growth/viability
Source text: as §1, §2

[16] = test system: PEO4 OVCA cell line; test: CellTiter-Blue cell viability assay, PEO4; type: cell-based; details: Homo sapiens; PEO4 cells, 72 hours, growth/viability
Source text: as §1, §2

[17] = test system: OVCA420 OVCA cell line; test: CellTiter-Blue cell viability assay, OVCA420; type: cell-based; details: Homo sapiens, OVCA 420; OVCA420 cells, 72 hours, growth/viability
Source text: as §1, §2

[18] = test system: OV2008 OVCA cell line; test: CellTiter-Blue cell viability assay, OV2008; type: cell-based; details: Homo sapiens; OV2008 cells, 72 hours, growth/viability
Source text: as §1, §2

[19] = test system: CAOV2 OVCA cell line; test: CellTiter-Blue cell viability assay, CAOV2; type: cell-based; details: Homo sapiens; CAOV2 cells, 72 hours, growth/viability
Source text: as §1, §2

[20] = test system: T8 OVCA cell line; test: CellTiter-Blue cell viability assay, T8; type: cell-based; details: Homo sapiens; T8 cells, 72 hours, growth/viability
Source text: as §1, §2

[21] = test system: IGR-OV1 OVCA cell line; test: CellTiter-Blue cell viability assay, IGR-OV1; type: cell-based; details: Homo sapiens, IGROV-1; IGR-OV1 cells, 72 hours, growth/viability
Source text: as §1, §2

[22] = test system: OVCA429 OVCA cell line; test: CellTiter-Blue cell viability assay, OVCA429; type: cell-based; details: Homo sapiens; OVCA429 cells, 72 hours, growth/viability
Source text: as §1, §2

[23] = test system: SK-OV-3 OVCA cell line; test: CellTiter-Blue cell viability assay, SK-OV-3; type: cell-based; details: Homo sapiens; SK-OV-3 cells, 72 hours, growth/viability
Source text: as §1, §2

[24] = test system: PEO1 OVCA cell line; test: CellTiter-Blue cell viability assay, PEO1; type: cell-based; details: Homo sapiens; PEO1 cells, 72 hours, growth/viability
Source text: as §1, §2

[25] = test system: patients with recurrent OVCA; details: 800-1250 mg/m^2/week, Phase II and III studies; cited from earlier work
[26] = test system: OVCAR10 OVCA cell line; test: CellTiter-Blue cell viability assay, OVCAR10; type: cell-based; details: Homo sapiens; OVCAR10 cells, 72 hours, growth/viability
Source text: as §1, §2

[27] = test system: M41 OVCA cell line; test: CellTiter-Blue cell viability assay, M41; type: cell-based; details: Homo sapiens; M41 cells, 72 hours, growth/viability
Source text: as §1, §2

[28] = test system: OVCAR8 OVCA cell line; test: CellTiter-Blue cell viability assay, OVCAR8; type: cell-based; details: Homo sapiens, OVCAR-8; OVCAR8 cells, 72 hours, growth/viability
Source text: as §1, §2

[29] = test system: CHIcisR OVCA cell line; test: CellTiter-Blue cell viability assay, CHIcisR; type: cell-based; details: Homo sapiens; CHIcisR cells, 72 hours, growth/viability
Source text: as §1, §2

[30] = test system: OV90 OVCA cell line; test: CellTiter-Blue cell viability assay, OV90; type: cell-based; details: Homo sapiens, OV-90; OV90 cells, 72 hours, growth/viability
Source text: as §1, §2

[31] = test system: TOV-21G OVCA cell line; test: CellTiter-Blue cell viability assay, TOV-21G; type: cell-based; details: Homo sapiens, TOV21G; TOV-21G cells, 72 hours, growth/viability
Source text: as §1, §2

[32] = test system: SK-OV-4 OVCA cell line; test: CellTiter-Blue cell viability assay, SK-OV-4; type: cell-based; details: Homo sapiens; SK-OV-4 cells, 72 hours, growth/viability
Source text: as §1, §2

[33] = test system: Dov13 OVCA cell line; test: CellTiter-Blue cell viability assay, Dov13; type: cell-based; details: Homo sapiens; Dov13 cells, 72 hours, growth/viability
Source text: as §1, §2

[34] = test system: CHI OVCA cell line; test: CellTiter-Blue cell viability assay, CHI; type: cell-based; details: Homo sapiens; CHI cells, 72 hours, growth/viability
Source text: as §1, §2

[35] = test system: OVCA432 OVCA cell line; test: CellTiter-Blue cell viability assay, OVCA432; type: cell-based; details: Homo sapiens; OVCA432 cells, 72 hours, growth/viability
Source text: as §1, §2

[36] = test system: Tyknu OVCA cell line; test: CellTiter-Blue cell viability assay, Tyknu; type: cell-based; details: Homo sapiens; Tyknu cells, 72 hours, growth/viability
Source text: as §1, §2

[37] = test system: C13 OVCA cell line; test: CellTiter-Blue cell viability assay, C13; type: cell-based; details: Homo sapiens; C13 cells, 72 hours, growth/viability
Source text: as §1, §2

[38] = test system: IMCC5 OVCA cell line; test: CellTiter-Blue cell viability assay, IMCC5; type: cell-based; details: Homo sapiens; IMCC5 cells, 72 hours, growth/viability
Source text: as §1, §2

[39] = test system: OVCAR5 OVCA cell line; test: CellTiter-Blue cell viability assay, OVCAR5; type: cell-based; details: Homo sapiens, OVCAR-5; OVCAR5 cells, 72 hours, growth/viability
Source text: as §1, §2

[40] = test system: OVCAR4 OVCA cell line; test: CellTiter-Blue cell viability assay, OVCAR4; type: cell-based; details: Homo sapiens, OVCAR-4; OVCAR4 cells, 72 hours, growth/viability
Source text: as §1, §2

[41] = test system: Ovary1847 OVCA cell line; test: CellTiter-Blue cell viability assay, Ovary1847; type: cell-based; details: Homo sapiens; Ovary1847 cells, 72 hours, growth/viability
Source text: as §1, §2

[42] = test system: HeyA8 OVCA cell line; test: CellTiter-Blue cell viability assay, HeyA8; type: cell-based; details: Homo sapiens, HEY A8; HeyA8 cells, 72 hours, growth/viability
Source text: as §1, §2

## Nc1ccn([C@@H]2O[C@H](CO)[C@@H](O)C2(F)F)c(=O)n1 [Gemcitabine, 2′,2′-difluorodeoxycytidine]
[1]
  IC50: 37.4 nM
[2]
  IC50: 9.9 nM
[3]
  IC50: 366 nM
[4]
  IC50: 56400 nM
[5]
  IC50: 6200 nM
[6]
  IC50: 943 nM
[7]
  IC50: 8.5 nM
[8]
  IC50: 2.2 nM
[9]
  IC50: 59400 nM
[10]
  IC50: 51.8 nM
[11]
  IC50: 30400 nM
[12]
  IC50: 3500 nM
[13]
  IC50: 164 nM
[14]
  IC50: 22 nM
[15]
  IC50: 44500 nM
[16]
  IC50: 536 nM
[17]
  IC50: 12700 nM
[18]
  IC50: 384 nM
[19]
  IC50: 3900 nM
[20]
  IC50: 256 nM
[21]
  IC50: 531 nM
[22]
  IC50: 22.2 nM
[23]
  IC50: 16100 nM
[24]
  IC50: 135 nM
[25]
  response rates: up to 19%
[26]
  IC50: 672 nM
[27]
  IC50: 39.5 nM
[28]
  IC50: 273 nM
[29]
  IC50: 23.7 nM
[30]
  IC50: 18.9 nM
[31]
  IC50: 764 nM
[32]
  IC50: 3.3 nM
[33]
  IC50: 6 nM
[34]
  IC50: 269 nM
[35]
  IC50: 14900 nM
[36]
  IC50: 4.6 nM
[37]
  IC50: 418 nM
[38]
  IC50: 105 nM
[39]
  IC50: 278 nM
[40]
  IC50: 655 nM
[41]
  IC50: 865 nM
[42]
  IC50: 1500 nM
